# Target: TNFα trimer (Homo sapiens, UniProt P01375)
# Test: TNFα FP Competitive Binding Assay
# Details: TNFα FP competitive binding assay; class symbols A/B/C; read-out: TNF IC50
# Summary of the method: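 Fluorescence polarization displacement: 20 nM TNFα trimer (60 nM protein) with 1 nM fluorescein-labelled bis-isoquinoline probe in HEPES/NaCl/EDTA/Triton X-100 buffer. 12-point 1:3 compound series, top final 338 μM (3.4% DMSO) or 100 μM (2.0% DMSO); 18-24 h at 37 °C, then 1 h rt before background-subtracted mP read; variable-slope curve fit.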
# Sequence of TNFα trimer (P01375 77-233 limits assumed): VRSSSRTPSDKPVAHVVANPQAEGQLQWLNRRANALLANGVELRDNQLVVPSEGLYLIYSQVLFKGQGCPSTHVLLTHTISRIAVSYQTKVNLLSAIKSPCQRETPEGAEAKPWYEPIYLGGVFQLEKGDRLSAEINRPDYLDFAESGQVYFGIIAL
row,IC50 [µM],SMILES
1,< 1,COc1ccccc1C1CCCc2nc3ccc(-c4cnc(N5CCC(O)CC5)nc4)cn3c21 (stereo not drawn) [AJ.1]
2,1 to 10,c1ccc2c(c1)OCCC21COCc2nc3ccc(-c4cnc(N5CCCNCC5)nc4)nc3n21 (stereo not drawn) [BA.4]
3,< 1,COc1ccccc1C1CCCCc2nc3ccc(-c4cnc(C(C)(C)O)nc4)cn3c21 (stereo not drawn) [S.4]
4,1 to 10,COc1ncc(-c2ccc3nc4n(c3c2)C(c2ccccc2)COC4)cc1C (stereo not drawn) [T.7]
5,< 1,COc1ccccc1C1CCCc2nc3ccc(-c4cnc(N5CCN6C(=O)NCC6C5)nc4)cn3c21 (stereo not drawn) [AJ.6]
6,< 1,O=C1NCC2CN(c3ncc(-c4ccc5nc6n(c5c4)[C@@H](c4ccccc4Cl)COC6)cn3)CCN12 (stereo partly drawn) [AH.3]
7,< 1,c1ccc([C@H]2CCCc3nc4ccc(-c5cnc(N6CCOCC6)nc5)cc4n32)cc1 [Y.1]
8,< 1,COc1ccccc1C1CCCc2nc3ccc(-c4cnc(N5CCC(O)C(F)(F)C5)nc4)cn3c21 (stereo not drawn) [AJ.4]
9,1 to 10,c1ccc([C@H]2CCc3nc4ccc(-c5ccnc(OC6CCC67CCNC7)c5)nc4n32)cc1 (stereo partly drawn) [AT.3]
10,1 to 10,c1ccc([C@H]2CCc3nc4ccc(-c5ccnc(OC6COC6)c5)nc4n32)cc1 [AQ.3]
11,10 to 100,CS(=O)(=O)CCn1ccc(-c2ccc3nc4n(c3n2)[C@@H](c2ccccc2)CC4)cc1=O [AK.2]
12,< 1,CC(C)(O)c1ncc(-c2ccc3nc4n(c3n2)[C@@]2(COC4)COc3ccccc32)cn1 [Y.13]
13,10 to 100,O=c1cc(-c2ccc3nc4n(c3n2)[C@@H](c2ccccc2)CC4)ccn1C1CCOCC1 [AW.5]
14,< 1,O=C1NC[C@@H]2CN(c3ncc(-c4ccc5nc6n(c5n4)C4(CCOc5ccccc54)COC6)cn3)CCN12 (stereo partly drawn) [BB.1]
15,< 1,OC1CCC(Oc2cc(-c3ccc4nc5n(c4n3)[C@@H](c3ccccc3)CC5)ccn2)CC1 (stereo partly drawn) [AQ.2]
16,< 1,c1ccc2c(c1)OCCC21OCCc2nc3ccc(-c4cnc(N5CCOCC5)nc4)nn3c21 (stereo not drawn) [AY.2]
17,1 to 10,COc1ncc(-c2ccc3nc4n(c3c2)C(c2ccccc2)COC4)cc1F (stereo not drawn) [T.1]
18,< 1,OC1CCN(c2ncc(-c3ccc4nc5n(c4n3)[C@@H](c3ccccc3)CC5)cn2)CC1 [Y.11]
19,1 to 10,Cc1cc(-c2ccc3nc4n(c3c2)C(c2ccccc2)COC4)cnc1N1CCN(C)CC1 (stereo not drawn) [T.34]
20,< 1,O=C1NC[C@@H]2CN(c3ncc(-c4ccc5nc6n(c5n4)C4(COC6)COc5ccccc54)cn3)CCN12 (stereo partly drawn) [AU.1]
21,1 to 10,COc1ccccc1[C@@H]1CCCc2nc3ccc(-c4cnc(C(C)(C)O)nc4)cn3c21 [Y.5]
22,< 1,CC(C)(O)c1ncc(-c2ccc3nc4n(c3c2)C(c2c(Cl)cccc2Cl)COC4)cn1 (stereo not drawn) [Z.2]
23,10 to 100,CC(C)(O)c1ncc(-c2ccc3nc4n(c3c2)[C@H](c2ccccc2)CC4)cn1 [Y.4]
24,< 1,OC1(c2ncc(-c3ccc4nc5n(c4c3)[C@@H](c3ccccc3)CC5)cn2)CCC1 [AA.2]
25,10 to 100,COc1cccc([C@@H]2CCc3nc4ccc(-c5cnc(N6CCN7C(=O)NC[C@@H]7C6)nc5)nc4n32)c1 [AN.1]
26,1 to 10,OC1CC(Nc2ncc(-c3ccc4nc5n(c4n3)C3(CCOc4ccccc43)COC5)cn2)C1 (stereo not drawn) [BB.6]
27,< 1,CC(O)C(=O)N1CCN(c2ncc(-c3ccc4nc5n(c4n3)C3(CCc4ccccc43)COC5)cn2)CC1 (stereo not drawn) [AV.5]

# Same assay, conditions: fluorescence polarization competition; 20 nM TNFα trimer, 1 nM OregonGreen488 probe; read-out: TNF IC50 (TNFα FP binding assay IC50)
row,IC50 [µM],SMILES
1,1 to 10,"O=C(O)C1CCN(c2ncc(-c3ccc4nc5n(c4c3)C(c3ccccc3)COC5)cn2)CC1 (stereo not drawn) [Example 22, 1-(5-(4-Phenyl-3,4-dihydro-1H-benzo[4,5]imidazo[2,1-c][1,4]oxazin-7-yl)pyrimidin-2-yl)piperidine-4-carboxylic acid]"
2,1 to 10,N#CCOc1ccc(-c2ccc3nc4n(c3c2)C(c2ccccc2)CC4)cc1 (stereo not drawn) [A.34]
3,10 to 100,"COc1ccccc1[C@@H]1CCc2nc3ccc(-c4cnc(C(C)(C)O)nc4)cn3c21 [Example 11, (S)-2-(5-(1-(2-Methoxyphenyl)-2,3-dihydro-1H-cyclopenta[4,5]imidazo[1,2-a]pyridin-7-yl)pyrimidin-2-yl)propan-2-ol]"
4,< 1,"O=C1NC[C@H]2CN(c3ncc(-c4ccc5nc6n(c5c4)[C@@H](c4ccccc4)COC6)cn3)CCN12 [Example 27, (S)-7-(5-((S)-4-Phenyl-3,4-dihydro-1H-benzo[4,5]imidazo[2,1-c][1,4]oxazin-7-yl)pyrimidin-2-yl)hexahydroimidazo[1,5-a]pyrazin-3(2)-one]"
5,< 1,OCC1(F)CCN(c2ncc(-c3ccc4nc5n(c4c3)[C@@H](c3ccccc3)COC5)cn2)CC1 [G.14]
6,1 to 10,OCCC1(O)CCN(c2ncc(-c3ccc4nc5n(c4c3)[C@@H](c3ccccc3)COC5)cn2)C1 (stereo partly drawn) [G.31]
7,1 to 10,OC1(c2ccccc2)CCCc2nc3ccc(-c4cnc(N5CCOCC5)nc4)cn3c21 (stereo not drawn) [I.2]
8,10 to 100,O[C@@H]1CN(c2ncc(-c3ccc4nc5n(c4c3)[C@@H](c3ccccc3)COC5)cn2)C[C@H]1O [G.26]
9,< 1,"O=C1NC[C@H]2CN(c3ncc(-c4ccc5nc6n(c5c4)[C@@H](c4ccccc4)CC6)cn3)CCN12 [Example 25, (S)-7-(5-((R)-1-Phenyl-2,3-dihydro-1H-benzo[d]pyrrolo[1,2-a]imidazol-7-yl)pyrimidin-2-yl)hexahydroimidazo[1,5-a]pyrazin-3(2H)-one]"
10,< 1,O=C1CN(c2ncc(-c3ccc4nc5n(c4n3)C(c3ccccc3)CC5)cn2)CCN1 (stereo not drawn) [L.2]
11,< 1,"C[C@]1(c2ccccc2)CCc2nc3ccc(-c4cnc(N5CCC(O)CC5)nc4)nc3n21 [(R)-1-(5-(8-methyl-8-phenyl-7,8-dihydro-6H-pyrrolo[2′,1′:2,3]imidazo[4,5-b]pyridin-2-yl)pyrimidin-2-yl)piperidin-4-ol]"
12,< 1,O=S(=O)(c1ccc(-c2ccc3nc4n(c3c2)C(c2ccccc2)CC4)cc1)N1CCOCC1 (stereo not drawn) [A.3]
13,1 to 10,OC1(c2cc(F)cc(Cl)c2)CCCCc2nc3ccc(-c4cnc(N5CCOCC5)nc4)cn3c21 (stereo not drawn) [J.5]
14,< 1,"C[C@@H]1CN(c2ncc(-c3ccc4nc5n(c4n3)[C@@H](c3ccccc3)CC5)cn2)CCN1C(=O)CO [Example 43, 2-Hydroxy-1-((R)-2-methyl-4-(5-((R)-8-phenyl-7,8-dihydro-6H-pyrrolo[2′,1′:2,3]imidazo[4,5-b]pyridin-2-yl)pyrimidin-2-yl)piperazin-1-yl)ethanone]"
15,1 to 10,"C1=C(c2ccc3nc4n(c3n2)C2(COC4)COc3ccccc32)CCN(c2ccncn2)C1 (stereo not drawn) [Example 73, 2′-(1-(Pyrimidin-4-yl)-1,2,3,6-tetrahydropyridin-4-yl)-2H,6′H,8′H-spiro[benzofuran-3,9′-pyrido[3′,2′:4,5]imidazo[2,1-c][1,4]oxazine]]"
16,< 1,"O=C1NCC2CN(c3ncc(-c4ccc5nc6n(c5c4)[C@@H](c4ccccc4)CC6)cn3)CCN12 (stereo partly drawn) [Example 3, 7-(5-((R)-1-Phenyl-2,3-dihydro-1H-benzo[d]pyrrolo[1,2-a]imidazol-7-yl)pyrimidin-2-yl)hexahydroimidazo[1,5-a]pyrazin-3(2H)-one]"
17,< 1,"c1ccc(C2COCc3nc4ccc(-c5cnc(N6CCOCC6)nc5)cc4n32)cc1 (single isomer, unassigned) [Example 21]"
18,1 to 10,CC(O)C1CCN(c2ncc(-c3ccc4nc5n(c4c3)[C@@H](c3ccccc3)COC5)cn2)CC1 (stereo partly drawn) [G.7]
19,1 to 10,Cc1ccc(-c2ccc3nc4n(c3c2)C(c2ccccc2)CC4)cn1 (stereo not drawn) [A.14]
20,< 1,CCN(C)C(=O)c1ccc(-c2ccc3nc4n(c3c2)C(c2ccccc2)CC4)cc1 (stereo not drawn) [A.11]
21,< 1,Clc1cccc(C2CCCc3nc4ccc(-c5cnc(N6CCOCC6)nc5)cn4c32)c1 (stereo not drawn) [K.1]
22,1 to 10,N#CCOc1cccc(-c2ccc3nc4n(c3c2)C(c2ccccc2)CC4)c1 (stereo not drawn) [A.18]
23,10 to 100,Cn1cc(-c2ccc3nc4n(c3c2)C(c2ccccc2)CC4)ccc1=O (stereo not drawn) [A.46]
24,< 1,CNS(=O)(=O)c1ccc(-c2ccc3nc4n(c3c2)C(c2ccccc2)CC4)cc1 (stereo not drawn) [A.1]
25,< 1,"CC(C)(O)c1ncc(-c2ccc3nc4n(c3c2)C(c2ccccc2)CC4)cn1 (stereo not drawn) [Example 1, 2-(5-(1-Phenyl-2,3-dihydro-1H-benzo[d]pyrrolo[1,2-a]imidazol-7-yl)pyrimidin-2-yl)propan-2-ol]"
26,1 to 10,"OC1CCN(c2ncc(-c3ccc4nc5n(c4n3)C(c3ccccc3)C3CC5C3)cn2)CC1 (stereo not drawn) [Example 64, 1-(5-(9-Phenyl-6,7,8,9-tetrahydro-6,8-methanoimidazo[1,2-a:5,4-b′]dipyridin-2-yl)pyrimidin-2-yl)piperidin-4-ol]"
27,1 to 10,OC1(c2cccc(Cl)c2)CCCCc2nc3ccc(-c4cnc(N5CCOCC5)nc4)cn3c21 (stereo not drawn) [J.2]

# From patent US20180179198A1, “TRICYCLIC MODULATORS OF TNF SIGNALING” (AbbVie Inc., priority 2015, published 2018)
